According to patent publication US20150005253A1, “NOVEL COMBINATIONS FOR TREATING ACUTE MYELOID LEUKAEMIA OR CHRONIC MYELOID LEUKAEMIA” (SANOFI, priority 2012, published 2015):
Read-outs that look alike come from different tables or passages of the source.

Columns and labels:
KG1a cells = assay: Tumor implantation study in SCID mice bearing KG1a cells; assay type: in vivo; conditions: for ΔT/ΔC: evaluated on day 32; for cures: day 120
Description: (§1) For in vitro studies, compound (A) was dissolved at 10 mM in DMSO and diluted in complete RPMI-1640 medium or in phenol red-free complete RPMI-1640 medium in sterile 96-well polystyrene cell culture plates. For in vivo studies, compound (A) was prepared for intravenous (IV) or intraperitoneal (IP) administration by mixing 22% PEG400 with 5% solutol and 73% […]. For oral administration, compound (A), was prepared in a generally regarded as safe (GRAS) formulation composed of 21% labrasol with 5% solutol and 74% HCL 0.001N. Solutions were kept on ice and administered as a bolus within 1 hour after formulation preparation. The volume of injection was 0.2 mL per mouse.
(§2) Eight-week-old female SCID mice were purchased from Charles River. The Committee of Animal Studies at Sanofi approved the protocol for animal experimentation. This protocol and all laboratory procedures comply with the French Legislation, which implements the European Directives. Animals were received at least one week before the experiment to allow acclimatization. The animals were kept under a natural daylight cycle and given food and water ad libitum.
All tumor cell lines were obtained from DSMZ GmbH. Initially, cell lines were cultured in RPMI 1640 containing 10% FCS and antibiotics, and implanted subcutaneously in SCID mice (10^7 cells/mouse). When the tumor reached approximately 1000 mg, it was removed from the donor mouse, cut into fragments (2-3 mm diameter), placed in a phosphate buffer saline, and implanted bilaterally with a 12-gauge trocar. Tumor fragments were propagated until stable growth behavior occurred (a stable doubling time), before using in experiments. Distribution was performed using body weight and tumor weight criteria with the “Newlab oncology” software (Newlab).
(§3) When ΔT/ΔC values are negative, the percentage of regression is evaluated. Partial regression (PR) is defined as a decrease ≧50% of tumor volume at treatment initiation. Complete regression (CR) is defined as a decrease in tumor volume below the limit of palpation (T=10 mm^3). At study end, the number of tumor-free survivors (TFS), which correspond to mice without any detectable tumor, was determined. Both drug-related deaths and maximum percent relative mean net body weight loss were also determined. Median times to reach tumor target size were compared using Log-Rank or Kruskal-Wallis multiple comparisons tests. A body weight loss nadir (mean of group)>20% or 10% drug-related deaths were considered to indicate an excessive toxic dosage.

[1] = tested on: erythroblastic BFU-E progenitors; assay: Normal myeloid progenitor cell clonogenic assay (BFU-E); assay type: cell-based; conditions: Homo sapiens, 336 h, median over normal myeloid progenitor samples, 14 days
Description: as §1
(§4) Fresh CD34^+ human bone marrow cells were washed twice in Iscove modified Dulbecco medium (IMDM) containing 10% FCS and resuspended in H4230 medium supplemented with 10% 5637-conditioned medium for CFU-GM growth, in H4435 medium for CFU-M growth, and in H4535 medium for BFU-E growth. H4230, H4435, and H4535 medium were purchased from Stem Cell Technologies. The cells were then plated in 35-mm Petri dishes and incubated in a humidified CO2 incubator (5% CO2, 37° C.) for 14 days. Colonies (>50 cells) were then scored under an inverted microscope.

[2] = tested on: leukemia progenitors (CFU-L) of AML patient samples; assay: Myeloid leukemic cell clonogenic assay on AML patient samples (ex vivo); assay type: cell-based, human; conditions: for IC50: Homo sapiens
Description: Hematological malignant cell lines were obtained from Deutsche Sammlung von Mikroorganismen and Zellkulturen GmbH (Braunschweig) and cultured in complete RPMI-1640 medium containing 10% fetal bovine serum and antibiotics. Primary AML cells were obtained from patients seen at Toulouse Hospital (Toulouse, France) at the time of diagnosis and after written informed consent. All samples were evaluated for karyotypic abnormalities, immunologic phenotype, FLT3-acquired activating mutations (internal tandem duplications and kinase domain mutations), t (Mizuki M. et al., Blood 2000 96: 3907-3914; Fiebig H. H. et al., Eur. J. Cancer 2004, 40: 802-820) and inv (Bonnet D. et al., Nat Med 1997 3: 730-737) mutations, and c-kit receptor-acquired mutations. Samples were stored in the Hemopathies Inserm Midi-Pyrénées (HIMIP) collection. Mononuclear cells were separated through a Ficoll-Hypaque density gradient.
as §1
The assay is as described by Récher and colleagues (Récher C. et al., Blood 2005; 105:2527-2534) with slight modifications. Briefly, cells were washed twice in PBS and suspended at 1×10^5 cell/mL in H4230 medium (Stem Cell Technologies) supplemented with 10% 5637-conditioned medium and appropriate dilutions of COMPOUND (A). Cells were then plated on 35 mm petri dishes and incubated at 37° C. in 5% CO2, fully humidified atmosphere. After 7 days, colonies (more than 20 cells) and clusters (more than 5 cells) were scored using an inverted microscope.

CML-T1 = assay: Human chronic leukaemia CML-T1 implanted in SCID mice; assay type: in vivo; conditions: Cytarabine 200 mg/kg IP days 8, 12, 16; COMPOUND (A) 10 mg/kg IP days 8, 9, 11-17, 19; alone or combined
Description: Food and water were given ad libitum.
(§5) where T is the median time (in days) required for the treatment group tumors to reach a predetermined size (eg, 1000 mg), and C is the median time tumors to reach the same size (in days) for the vehicle group of each schedule. Tumor-free survivors are excluded from these calculations (cures are tabulated separately). T-C is the tumor growth delay and Td is the tumor doubling time in days. […] LCK-g values can be translated into an activity rating, according to the Southern Research Institute (SRI) criteria: […]

in vivo = assay type: in vivo; conditions: female, SCID, mouse, in vivo; daily IV
Description: (§6) Solutions were kept on ice and administered as a bolus within 1 hour after formulation preparation. The volume of injection was 0.2 mL per mouse.
as §2
(§7) When the tumor reached approximately 1000 mg, it was removed from the donor mouse, cut into fragments (2-3 mm diameter), placed in a phosphate buffer saline, and implanted bilaterally with a 12-gauge trocar. Tumor fragments were propagated until stable growth behavior occurred (a stable doubling time), before using in experiments. Distribution was performed using body weight and tumor weight criteria with the “Newlab oncology” software (Newlab).
as §3, §5

KG1 cells = assay: in vivo; assay type: in vivo; conditions: for CR / cures / log cell kill-gross (LCK-g): Compound (A) 20 mg/kg IV days 16-20, alone or combined; for tumor response, oral consolidation: after IV induction
Description: as §6, §2, §7, §3, §5

[3] = tested on: granulomonocytic progenitors (CFU-GM); assay: Normal myeloid progenitor cell clonogenic assay (CFU-GM); assay type: cell-based; conditions: Homo sapiens, 336 h, median over normal myeloid progenitor samples, 14 days
Description: as §1, §4

[4] = Cytarabine 31.5 mg/kg IP days 16-22
[5] = very advanced KG1 tumors (1000 mg), 25 mg/kg IV daily day 22-30

With CC(C)(C)NC(=O)Nc1nc2nc(Nc3ccc4nsnc4c3)ncc2cc1-c1c(Cl)cccc1Cl [Compound (A), N-[2-(2,1,3-benzothiadiazol-5-ylamino)-6-(2,6-dichlorophenyl)pyrido[2,3-d]pyrimidin-7-yl]-N′-(1,1-dimethylethyl)-urea] the activity rating (KG1a cells; 10 mg/kg) was “highly active (ΔT/ΔC<0: highly active)”, the “animals with complete regression” value (KG1a cells; 10 mg/kg) was 10/10 and the ΔT/ΔC (KG1a cells; 10 mg/kg daily IV day 5-13 then IP to day 31) was −4.99%. The cures (KG1a cells; 10 mg/kg) was 80%, the activity rating (KG1a cells; 17 mg/kg) was “highly active (ΔT/ΔC<0: highly active)” and the “animals with complete regression” value (KG1a cells; 17 mg/kg) was 10/10. For the same compound, the ΔT/ΔC (KG1a cells; 17 mg/kg daily IV day 5-13 then IP to day 31) was −4.70%, the “body weight loss at nadir” value (KG1a cells; 17 mg/kg daily IV day 5-13 then IP, day 22, reversible) was 16.2% and the cures (KG1a cells; 17 mg/kg) was 60%. The IC50 [1] was 0.219 µM, the IC50 ([2]; range over AML patient samples, read-out: IC50 values ranging (all tested samples)) was ≥ 0.0038 µM and the IC50 ([2]; resistant, N=4 samples, read-out: IC50 maximum, resistant samples) was > 1 µM. It also gave an IC50 ([2]; resistant, N=4 samples, read-out: IC50 minimum, resistant samples) of 0.888 µM, an IC50 ([2]; sensitive, N=26, read-out: IC50 maximum, sensitive samples) of 0.532 µM and an IC50 ([2]; sensitive, N=26, read-out: IC50 median, sensitive samples) of 0.172 µM. For the same compound, the IC50 ([2]; sensitive, N=26, read-out: IC50 minimum, sensitive samples) was 0.0038 µM, the “sensitive samples as share of the tested samples” value ([2]; classified against activity on normal hematopoietic progenitors) was 86.7% and the “AML cell samples displaying resistance in the high-risk cytogenetic group” value ([2]; high-risk group: patients 4, 11, 14, 19, 21, 23, 25, 27, 28, 29) was 3. The “sensitivity of patient sample 11” value ([2]; patient sample 11) was “highly sensitive”, the LCK-g (CML-T1) was 0.1 and the MTD (in vivo) was 25 mg/kg. The activity rating (KG1 cells; 10 mg/kg IV) was “active”, the “animals with CR” value (KG1 cells; 10 mg/kg/day IV) was “one of six” and the ΔT/ΔC (KG1 cells; 10 mg/kg/day IV, day 19 to day 38) was 17.45%. The activity rating (KG1 cells; 25 mg/kg IV) was “highly active (ΔT/ΔC<0: highly active)”, the “animals with complete regressions (CR)” value (KG1 cells; 25 mg/kg/day IV (MTD)) was 6 out of 6 and the animals with cures (KG1 cells; 25 mg/kg/day IV (MTD)) was 6 out of 6. For the same compound, the DT/DC (KG1 cells; 25 mg/kg/day IV, day 19 to day 38) was < −14.27%, the body weight loss (KG1 cells; 25 mg/kg/day IV, day 29, reversible) was 18.2% and the CR (KG1 cells; [4]) was 83%. The cures (KG1 cells; [4]) was “no”, the “log cell kill-gross (LCK-g)” value (KG1 cells; [4]) was 2.4 and the “tumor response, oral consolidation” value (KG1 cells; oral 1x50 mg/kg daily day 31-95) was “tumors re-grew slowly”. For the same compound, the “tumor response, oral consolidation” value (KG1 cells; oral 2x40 mg/kg daily day 31-95) was “complete disappearance of tumors”, the animals cured (KG1 cells; oral 2x40 mg/kg/day) was “None” and the “maximum body weight loss” value (KG1 cells; oral 2x40 mg/kg/day, day 28, rapidly reversible) was 14.4%. The “efficacy (in words)” value (KG1 cells; oral once a day 19.8 mg/kg) was “no efficacy”, the ΔT/ΔC (KG1 cells; oral once a day 19.8 mg/kg) was 41.99% and the DT/DC (KG1 cells; oral once a day 31.5 mg/kg) was 19.72%. The DT/DC (KG1 cells; oral once a day 50 mg/kg) was 7.61%, the ΔT/ΔC (KG1 cells; oral, two daily dosages of 40 mg/kg/day, day 15 to day 40) was −3.80% and the “activity rating, IV induction phase” value (KG1 cells; [5]) was “highly active (ΔT/ΔC<0: highly active)”. For the same compound, the “tumor response, IV induction phase” value (KG1 cells; [5]) was “strong tumor regressions” and the IC50 [3] was 0.788 µM.
With Nc1ccn([C@@H]2O[C@H](CO)[C@@H](O)[C@@H]2O)c(=O)n1 [Cytarabine, cytarabine, reference compound] the LCK-g (CML-T1) was 0.9, the CR (KG1 cells; [4]) was “no” and the cures (KG1 cells; [4]) was “no”. For the same compound, the “log cell kill-gross (LCK-g)” value (KG1 cells; [4]) was 1.6 and the PR (KG1 cells; [4]) was “no”.
